Test results taken from patent US11047848B2, “Cellular discovery platform for neurodegenerative diseases” (Whitehead Institute for Biomedical Research, priority 2013, dated 2021).

Tested on: primary cortical cultures
Test: Optimization of the NO sensor FL2 in rat primary cortical cultures
Format: cell-based
Conditions: 500 μM DETA-NONOate for 30 min, DIV 14-21; FIG. 20
Protocol: FIG. 20. Optimization of the NO sensor, FL2, using an NO donor, DETA-NONOate. FL2 dye was loaded after exposing primary cortical cultures (DIV 14-21) to 500 μM DETA-NONOate for 30 min. […] Control cultures exposed to dye without an NO donor are shown in the upper panel. A single representative experiment is shown.
Embryos were harvested by cesarean section from anesthetized pregnant Sprague-Dawley rats at embryonic day 18. Cerebral cortices were isolated and dissociated with Accumax (Innovative Cell Technologies, Inc) digestion for 20 min at 37° C. and triutration with Pasteur pipette. Poly-ornithine and lamine-coated 96 well plates or 8 well-chambered coverglass (Lab-Tek; 70378-81) were seeded with 4×10^4 or 8×10^4 cells respectively in neurobasal medium (Life Technologies) supplemented with B27 (Life Technologies), 0.5 mM glutamine, 25 μM β-mercaptoethanol, penicillin (100 IU/ml) and streptomycin (100 μg/ml). One third of the medium was changed every 3 to 4 days. As a surrogate marker of cell viability, cellular ATP content was measured using the ViaLight Plus kit (Lonza).
The FL2 sensor used in this study was a non-acidified and non-esterified version of the FL2-related sensors that have been previously published^23,24,53,55. A working 1 mM solution of FL2 (batch SJL #1768) in DMSO (Sigma 276855) was stable for at least 3 months at −20° C. […]

## NCCN(CCN)/[N+]([O-])=N/O [DETA-NONOate]
  FL2 response (NO signal): robust FL2 response
